Drawing on patent US20240368163A1, “COMPOUNDS AND METHODS FOR MODULATING SPLICING” (REMIX THERAPEUTICS INC., priority 2021, published 2024), this text covers Papp, efflux ratio and IC50 for four compounds.

Series [1] is described as follows: Transwell assay for membrane efflux and permeability. The note with it: dog; MDCK-BCRP or MDCKII-MDR1 transwell, test compound 1 μM, 2 hours at 37° C. It is filed as in vitro ADME, Canine. In a few lines: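 Transport measured over 2 h at 37 °C with compounds at 1 μM final in HBSS containing 0.5% DMSO. Monolayers of BCRP-expressing MDCK or MDR1-expressing MDCKII cells were cultured 4-8 days, then HBSS-washed and equilibrated 30 min at 37 °C before dosing.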

In the next series the test system is HTT. Description: HiBiT protein abundance assay, HTT. It is filed as cell-based, human. The note with it: Homo sapiens, K562, 24 h, Table 13B, modified K562 cells. In a few lines: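 K562 cells with endogenous HiBiT-tagged target were treated 24 h at 37 °C with compound (10-point 3-fold dilution, top 10 μM final, DMSO ≤0.25%). Lytic LgBiT luminescence was normalized to unmodified K562 (baseline) and DMSO-treated tagged cells; IC50 interpolated at 50% from four-parameter logistic fit.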
In general terms: The HiBiT peptide binds its large partner to form an active luciferase.

Molecules are shown by their SMILES.

The Papp is the rate of passage across a membrane or cell layer, normalised by area and donor concentration. A word on the efflux ratio: it is the permeability from basolateral to apical divided by that in the opposite direction, in the common usage. In general, IC50 refers to the concentration at which inhibition is half-maximal. A lower IC50 goes with greater potency in that assay. `COc1nc(-c2ccc(OC3CC(C)(C)NC(C)(C)C3)nn2)cc(F)c1-c1cn[nH]c1` [Compound 965]: in series [1], the Papp at 2 h, 1 μM was 2 to 6 ×10⁻⁶ cm/s and the efflux ratio at 2 h, 1 μM was greater than 5. In addition, the IC50 in the series on HTT is less than 100 nM.
As for `CCOc1nc(-c2ccc(OC3CC(C)(C)NC(C)(C)C3)nn2)cc(F)c1-c1cn[nH]c1` [Compound 966], in series [1], the Papp at 2 h, 1 μM was 2 to 6 ×10⁻⁶ cm/s and the efflux ratio at 2 h, 1 μM was greater than 5. Moreover, in the series with HTT, the IC50 was less than 100 nM.
On the same counts, the results for `CCOc1nc(-c2ccc(OC3CC(C)(C)NC(C)(C)C3)nn2)ccc1-c1cn[nH]c1` [Compound 967] are 2 to 6 ×10⁻⁶ cm/s, 1.5 to 5 and less than 100 nM.
On the same counts, the results for `COc1nc(-c2ccc(OC3CC4CC(F)(F)C(C3)N4)nn2)cc(F)c1-c1cn[nH]c1` (stereo not drawn) [Compound 969] are 2 to 6 ×10⁻⁶ cm/s, greater than 5 and 100 to 1000 nM.
